For series [1], the target named is T1, ATP-binding cassette sub-family C member 2 (Rattus norvegicus, UniProt Q63120). As to the kind of experiment: TP_TRANSPORTER: biliary excretion in SD rat. The class given is functional, organism-based, Sprague-Dawley, Bile. The conditions noted are these: in vivo.
Series [2] has as its target T1, ATP-binding cassette sub-family C member 2. As to the kind of experiment: TP_TRANSPORTER: biliary excretion in EHBR rat. The class given is functional, organism-based, Bile. The settings on record: in vivo.
The target of series [3] is T2, Solute carrier organic anion transporter family member 1A1 (Rattus norvegicus, UniProt P46720).
T2 sequence (P46720 whole entry): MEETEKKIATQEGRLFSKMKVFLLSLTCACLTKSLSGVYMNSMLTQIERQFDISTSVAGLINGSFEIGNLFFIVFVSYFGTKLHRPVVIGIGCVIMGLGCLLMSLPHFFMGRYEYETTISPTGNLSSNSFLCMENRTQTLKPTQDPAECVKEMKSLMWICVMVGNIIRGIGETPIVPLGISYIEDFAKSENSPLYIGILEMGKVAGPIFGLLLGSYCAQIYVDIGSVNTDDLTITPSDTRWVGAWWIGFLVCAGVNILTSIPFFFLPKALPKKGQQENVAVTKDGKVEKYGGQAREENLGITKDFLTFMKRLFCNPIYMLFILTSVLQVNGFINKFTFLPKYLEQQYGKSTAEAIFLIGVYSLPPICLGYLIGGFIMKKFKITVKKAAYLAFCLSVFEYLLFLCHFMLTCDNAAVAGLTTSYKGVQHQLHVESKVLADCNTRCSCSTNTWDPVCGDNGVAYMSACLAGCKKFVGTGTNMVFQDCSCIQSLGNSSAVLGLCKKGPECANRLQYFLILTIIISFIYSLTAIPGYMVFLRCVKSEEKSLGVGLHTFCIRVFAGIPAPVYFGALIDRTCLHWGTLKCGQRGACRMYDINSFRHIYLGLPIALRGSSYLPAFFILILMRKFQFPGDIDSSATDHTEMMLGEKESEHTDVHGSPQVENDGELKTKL
The series is described as follows: TP_TRANSPORTER: uptake in Oatp1-expressing COS-7 cells. The conditions noted are these: monkey. The class given is functional, cell-based.

Series [4] addresses T3, Hepatic sodium/bile acid cotransporter (Rattus norvegicus, UniProt P26435).
T3 sequence (P26435 whole entry): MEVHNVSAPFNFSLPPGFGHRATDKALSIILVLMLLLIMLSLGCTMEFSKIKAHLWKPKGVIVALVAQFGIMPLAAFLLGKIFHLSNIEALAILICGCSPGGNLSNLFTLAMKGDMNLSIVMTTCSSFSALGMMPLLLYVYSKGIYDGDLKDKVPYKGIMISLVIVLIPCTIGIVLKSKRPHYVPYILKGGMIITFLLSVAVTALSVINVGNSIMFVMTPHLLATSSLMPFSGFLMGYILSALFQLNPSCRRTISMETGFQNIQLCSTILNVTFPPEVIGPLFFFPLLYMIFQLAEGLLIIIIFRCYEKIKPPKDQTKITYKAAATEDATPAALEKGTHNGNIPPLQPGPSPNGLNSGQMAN
As to the kind of experiment: TP_TRANSPORTER: uptake in Ntcp-expressing COS-7 cells. It is filed as functional, cell-based. The conditions noted are these: monkey.

Drawing on ChEMBL document CHEMBL2073846, “Pharmacokinetic study of the hepatobiliary transport of indomethacin” (Pharm Res, 2000), this text covers Activity for two compounds.

T1 sequence (Q63120 whole entry): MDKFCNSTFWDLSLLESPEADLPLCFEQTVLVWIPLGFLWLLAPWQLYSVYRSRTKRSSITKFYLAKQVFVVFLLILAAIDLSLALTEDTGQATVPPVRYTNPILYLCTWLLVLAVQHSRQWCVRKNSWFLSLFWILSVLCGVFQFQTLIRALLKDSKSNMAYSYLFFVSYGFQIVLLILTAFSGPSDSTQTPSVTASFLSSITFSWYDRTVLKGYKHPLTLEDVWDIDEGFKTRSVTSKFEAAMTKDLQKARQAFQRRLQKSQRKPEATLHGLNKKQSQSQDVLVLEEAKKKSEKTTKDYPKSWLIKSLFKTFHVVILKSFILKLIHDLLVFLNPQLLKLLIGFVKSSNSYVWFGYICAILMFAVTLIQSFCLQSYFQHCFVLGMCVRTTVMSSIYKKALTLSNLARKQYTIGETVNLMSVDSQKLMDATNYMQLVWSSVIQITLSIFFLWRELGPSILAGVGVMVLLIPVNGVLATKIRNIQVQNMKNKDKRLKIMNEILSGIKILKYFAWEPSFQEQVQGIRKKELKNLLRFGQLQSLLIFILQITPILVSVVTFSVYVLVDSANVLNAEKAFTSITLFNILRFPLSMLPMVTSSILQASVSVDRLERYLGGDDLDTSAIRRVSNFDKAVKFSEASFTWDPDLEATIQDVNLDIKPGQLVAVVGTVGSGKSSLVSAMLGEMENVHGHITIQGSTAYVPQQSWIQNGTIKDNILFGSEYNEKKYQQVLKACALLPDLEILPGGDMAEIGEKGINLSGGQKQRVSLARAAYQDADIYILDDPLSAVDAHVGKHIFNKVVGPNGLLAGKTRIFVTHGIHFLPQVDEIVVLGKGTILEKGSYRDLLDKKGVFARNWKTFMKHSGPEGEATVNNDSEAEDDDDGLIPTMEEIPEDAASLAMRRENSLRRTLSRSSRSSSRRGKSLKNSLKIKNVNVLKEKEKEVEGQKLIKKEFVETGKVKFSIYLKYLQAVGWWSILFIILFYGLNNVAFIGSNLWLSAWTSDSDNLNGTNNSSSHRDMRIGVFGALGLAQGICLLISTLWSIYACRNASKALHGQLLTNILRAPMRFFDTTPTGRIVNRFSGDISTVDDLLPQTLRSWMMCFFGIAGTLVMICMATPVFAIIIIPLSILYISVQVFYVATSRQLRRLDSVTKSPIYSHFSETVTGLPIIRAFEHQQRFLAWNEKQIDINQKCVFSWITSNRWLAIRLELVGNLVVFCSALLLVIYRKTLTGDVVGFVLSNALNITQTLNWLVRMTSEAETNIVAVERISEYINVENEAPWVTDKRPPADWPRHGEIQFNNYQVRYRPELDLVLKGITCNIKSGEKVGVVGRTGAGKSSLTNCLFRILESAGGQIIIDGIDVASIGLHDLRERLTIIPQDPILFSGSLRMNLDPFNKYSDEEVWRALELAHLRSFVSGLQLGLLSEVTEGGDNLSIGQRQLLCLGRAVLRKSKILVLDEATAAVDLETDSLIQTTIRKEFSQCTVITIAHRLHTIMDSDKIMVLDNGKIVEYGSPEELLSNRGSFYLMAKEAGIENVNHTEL

Consider `COc1ccc2c(c1)c(CC(=O)O[C@@H]1O[C@H](C(=O)O)[C@@H](O)[C@H](O)[C@H]1O)c(C)n2C(=O)c1ccc(Cl)cc1` [INDOMETHACIN GLUCURONIDE], for which the Activity entry in series [1] and in series [2] was “substrate [+]” in each case.

Regarding `COc1ccc2c(c1)c(CC(=O)O)c(C)n2C(=O)c1ccc(Cl)cc1` [INDOMETHACIN], the Activity result in series [1], in series [2], in series [3] and in series [4] was “is not a substrate [-]” throughout.
